Several values for one entry are separate records, joined by “and”; a condition that tells them apart may be missing. Equal entries are not always repeated. Toxic doses and inconclusive results are not listed. The calls were made as follows: active = survival T/C of 150% or more; inactive = T/C below 125% in these data.
Tested on: P388 leukemia ip, CD2F1 mice, survival T/C
Test: NCI In Vivo Anticancer Drug Screen. Data for tumor model P388 Leukemia (intraperitoneal) in CD2F1 (CDF1) mice
Conditions: endpoint: median survival time, higher = longer survival
Outline: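 Mice carrying the transplanted tumor received test compound or vehicle. Survival was recorded in each group, and the value is the treated-group measurement divided by that of the vehicle-treated control group.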

[1] = dose: 50.0 mg/kg/injection, schedule: Q01DX009 (ip), vehicle: saline with Tween-80
[2] = dose: 100.0 mg/kg/injection, schedule: Q01DX009 (ip), vehicle: saline with Tween-80
[3] = dose: 200.0 mg/kg/injection, schedule: Q01DX009 (ip), vehicle: saline with Tween-80
[4] = dose: 400.0 mg/kg/injection, schedule: Q01DX009 (ip), vehicle: saline with Tween-80
[5] = dose: 100.0 mg/kg/injection, schedule: Q01DX001 (ip), vehicle: saline with Tween-80
[6] = dose: 200.0 mg/kg/injection, schedule: Q01DX001 (ip), vehicle: saline with Tween-80
[7] = dose: 60.0 mg/kg/injection, schedule: Q01DX005 (ip), vehicle: saline with Tween-80
[8] = dose: 120.0 mg/kg/injection, schedule: Q01DX005 (ip), vehicle: saline with Tween-80
[9] = dose: 240.0 mg/kg/injection, schedule: Q01DX005 (ip), vehicle: saline with Tween-80
[10] = dose: 50.0 mg/kg/injection, schedule: Q01DX005 (ip), vehicle: Klucel (hydroxypropylcellulose) (HPC)
[11] = dose: 100.0 mg/kg/injection, schedule: Q01DX005 (ip), vehicle: Klucel (hydroxypropylcellulose) (HPC)
[12] = dose: 200.0 mg/kg/injection, schedule: Q01DX005 (ip), vehicle: Klucel (hydroxypropylcellulose) (HPC)
[13] = dose: 12.5 mg/kg/injection, schedule: Q01DX009 (ip), vehicle: Klucel (hydroxypropylcellulose) (HPC)
[14] = dose: 25.0 mg/kg/injection, schedule: Q01DX009 (ip), vehicle: Klucel (hydroxypropylcellulose) (HPC)
[15] = dose: 50.0 mg/kg/injection, schedule: Q01DX009 (ip), vehicle: Klucel (hydroxypropylcellulose) (HPC)
[16] = dose: 50.0 mg/kg/injection, schedule: Q01DX005 (ip), vehicle: saline with Tween-80
[17] = dose: 100.0 mg/kg/injection, schedule: Q01DX005 (ip), vehicle: saline with Tween-80

Measured: T/C

O=C(O)C(Cc1ccccc1[N+](=O)[O-])N1C(=O)c2ccccc2C1=O (stereo not drawn)
inactive: [1] 112 % of control | [2] 92 % of control | [3] 94 % of control | [4] 100 % of control

COC(=O)c1cccc2c1OCO2
inactive: [2] 100 % of control | [3] 100 % of control | [4] 100 % of control

C=C(C)C(=O)N1c2ccc(OC)cc2CC1C(=O)OCC (stereo not drawn)
inactive: dose: 60.0 mg/kg/injection, schedule: Q01DX005 (ip), vehicle: saline + Tween-80 + alcohol 102 % of control | dose: 120.0 mg/kg/injection, schedule: Q01DX005 (ip), vehicle: saline + Tween-80 + alcohol 100 % of control | dose: 240.0 mg/kg/injection, schedule: Q01DX005 (ip), vehicle: saline + Tween-80 + alcohol 97 % of control

O=C1[C@@H]2CCC[C@@H]2[C@H]2CCC[C@@H]12
inactive: [5] 95 % of control | [6] 102 % of control | dose: 400.0 mg/kg/injection, schedule: Q01DX001 (ip), vehicle: saline with Tween-80 89 % of control

COc1nc2c(nnn2C2OC(CO)C(O)C(O)C2O)c(=O)[nH]1 (stereo not drawn)
inactive: dose: 60.0 mg/kg/injection, schedule: Q01DX005 (ip), vehicle: saline 97 % of control | dose: 120.0 mg/kg/injection, schedule: Q01DX005 (ip), vehicle: saline 99 % of control | dose: 240.0 mg/kg/injection, schedule: Q01DX005 (ip), vehicle: saline 100 % of control

CC(C)N1C(=O)C2C3C=CC(C3)C2C1=O (stereo not drawn)
inactive: dose: 25.0 mg/kg/injection, schedule: Q04DX002 (ip), vehicle: saline with Tween-80 94 % of control | dose: 50.0 mg/kg/injection, schedule: Q04DX002 (ip), vehicle: saline with Tween-80 108 % of control

C=C(CN(C)C)C(=O)c1cc(C)ccc1C
inactive: dose: 0.93 mg/kg/injection, schedule: Q01DX005 (ip), vehicle: saline 100 % of control | dose: 1.87 mg/kg/injection, schedule: Q01DX005 (ip), vehicle: saline 100 % of control | dose: 3.75 mg/kg/injection, schedule: Q01DX005 (ip), vehicle: saline 98 % of control

CN(C)CCOc1ccc(/C=C2\CCc3ccccc3C2=O)cc1
inactive: [7] 97 % of control | [8] 94 % of control | [9] 95 % of control

O=S1(=O)C(c2cccc(C(F)(F)F)c2)=C(O)c2cc3ccccc3nc21
inactive: dose: 6.25 mg/kg/injection, schedule: Q01DX009 (ip), vehicle: saline + Tween-80 + alcohol 105 % of control | dose: 12.5 mg/kg/injection, schedule: Q01DX009 (ip), vehicle: saline + Tween-80 + alcohol 105 % of control | dose: 25.0 mg/kg/injection, schedule: Q01DX009 (ip), vehicle: saline + Tween-80 + alcohol 100 % of control and 87 % of control | dose: 50.0 mg/kg/injection, schedule: Q01DX009 (ip), vehicle: saline + Tween-80 + alcohol 99 % of control | dose: 100.0 mg/kg/injection, schedule: Q01DX009 (ip), vehicle: saline + Tween-80 + alcohol 99 % of control

CCc1ccc2c(c1OCOC)CCC2
inactive: dose: 100.0 mg/kg/injection, schedule: Q04DX002 (ip), vehicle: saline with Tween-80 100 % of control | dose: 200.0 mg/kg/injection, schedule: Q04DX002 (ip), vehicle: saline with Tween-80 100 % of control | dose: 400.0 mg/kg/injection, schedule: Q04DX002 (ip), vehicle: saline with Tween-80 95 % of control

[CH3][Ga][CH3].[CH3][Ga][CH3].[CH3][Ga][CH3].[CH3][Ga][CH3].[OH3+].[OH3+].[OH3+].[OH3+]
inactive: dose: 5.0 mg/kg/injection, schedule: Q04DX003 (ip), vehicle: saline with Tween-80 90 % of control | dose: 10.0 mg/kg/injection, schedule: Q04DX003 (ip), vehicle: saline with Tween-80 90 % of control

CC(=O)Nc1cnc2c(nc3cc(C)ccn32)c1C
inactive: [7] 106 % of control | [8] 100 % of control | [9] 97 % of control

CCCC(NC(=O)c1ccccc1)C(=O)O (stereo not drawn)
inactive: [1] 100 % of control | [2] 99 % of control | [3] 99 % of control

CCCCCCCCCCCCCCCCCC[N+]1(CCC(C)C)CCSCC1
inactive: [5] 88 % of control | [6] 97 % of control

Nc1nc(N)c2cc(CCc3ccccc3)ccc2n1
inactive: dose: 6.25 mg/kg/injection, schedule: Q01DX009 (ip), vehicle: saline with Tween-80 95 % of control | dose: 12.5 mg/kg/injection, schedule: Q01DX009 (ip), vehicle: saline with Tween-80 109 % of control | dose: 25.0 mg/kg/injection, schedule: Q01DX009 (ip), vehicle: saline with Tween-80 90 % of control | dose: 50.0 mg/kg/injection, schedule: Q04DX003 (ip), vehicle: saline with Tween-80 104 % of control | dose: 100.0 mg/kg/injection, schedule: Q04DX003 (ip), vehicle: saline with Tween-80 109 % of control

CCOC(=O)Nc1cc(Cl)c2[nH]cnc2n1
inactive: [10] 97 % of control | [11] 101 % of control | [12] 108 % of control

Cc1oc(-c2ccccc2)nc1C(N)=O
inactive: [1] 106 % of control and 89 % of control and 95 % of control | [2] 101 % of control and 91 % of control and 96 % of control | [3] 99 % of control and 100 % of control

COc1cc2c(cc1OC)C(c1ccc([N+](=O)[O-])c(C)c1)=NCC2
inactive: [10] 100 % of control | [11] 100 % of control | [12] 96 % of control

CC(C)N(C(C)C)C1C2=C(CCSC2)OC(=O)C1(Cl)Cl (stereo not drawn)
inactive: [1] 103 % of control | [2] 100 % of control | [3] 96 % of control

COc1ccc2nonc2c1
inactive: dose: 100.0 mg/kg/injection, schedule: Q01DX001 (ip), vehicle: saline 103 % of control | dose: 200.0 mg/kg/injection, schedule: Q01DX001 (ip), vehicle: saline 103 % of control | dose: 400.0 mg/kg/injection, schedule: Q01DX001 (ip), vehicle: saline 105 % of control

CCCCCOC(=O)c1ccccc1N
inactive: [13] 105 % of control | [14] 104 % of control | [15] 102 % of control and 103 % of control | dose: 100.0 mg/kg/injection, schedule: Q01DX009 (ip), vehicle: Klucel (hydroxypropylcellulose) (HPC) 91 % of control

CCC1CN2CCc3cc(OC)c(OC)cc3C2CC1CCCl (stereo not drawn)
inactive: [13] 94 % of control | [14] 103 % of control | [15] 103 % of control and 106 % of control

COc1cc2c(cc1C(C)c1ccc(OC(C)C)cc1)OCO2 (stereo not drawn)
inactive: dose: 25.0 mg/kg/injection, schedule: Q01DX005 (ip), vehicle: saline with Tween-80 103 % of control | [16] 98 % of control | [17] 100 % of control | dose: 200.0 mg/kg/injection, schedule: Q01DX005 (ip), vehicle: saline with Tween-80 98 % of control

CN(C)c1cccc(NC(=O)CC#N)c1
inactive: [16] 93 % of control | [17] 93 % of control

COc1cc2c(cc1OCc1ccccc1)C(Cc1cc(Br)sc1Br)N(C(C)=O)CC2 (stereo not drawn)
inactive: dose: 63.0 mg/kg/injection, schedule: Q01DX001 (ip), vehicle: Klucel (hydroxypropylcellulose) (HPC) 97 % of control | dose: 126.0 mg/kg/injection, schedule: Q01DX001 (ip), vehicle: Klucel (hydroxypropylcellulose) (HPC) 101 % of control | dose: 252.0 mg/kg/injection, schedule: Q01DX001 (ip), vehicle: Klucel (hydroxypropylcellulose) (HPC) 109 % of control

SC1(S)CN2CCC1CC2
inactive: dose: 6.25 mg/kg/injection, schedule: Q01DX009 (ip), vehicle: saline 104 % of control | dose: 12.5 mg/kg/injection, schedule: Q01DX009 (ip), vehicle: saline 100 % of control

CC(C)(C)OC(=O)NC(CCCCNC(=O)OCc1ccccc1)C(=O)O (stereo not drawn)
inactive: dose: 50.0 mg/kg/injection, schedule: Q01DX005 (ip), vehicle: distilled water + Tween-80 + alcohol 92 % of control | dose: 50.0 mg/kg/injection, schedule: Q01DX005 (ip), vehicle: saline 106 % of control | dose: 100.0 mg/kg/injection, schedule: Q01DX005 (ip), vehicle: distilled water + Tween-80 + alcohol 92 % of control | dose: 100.0 mg/kg/injection, schedule: Q01DX005 (ip), vehicle: saline 100 % of control | dose: 200.0 mg/kg/injection, schedule: Q01DX005 (ip), vehicle: saline 103 % of control

CC1=CC(OC2C=C(C)C(=O)O2)OC1=O (stereo not drawn)
inactive: dose: 100.0 mg/kg/injection, schedule: Q04DX002 (ip), vehicle: saline 100 % of control | dose: 200.0 mg/kg/injection, schedule: Q04DX002 (ip), vehicle: saline 100 % of control | dose: 400.0 mg/kg/injection, schedule: Q04DX002 (ip), vehicle: saline 104 % of control

Source: PubChem BioAssay AID330 (DTP/NCI, 2004)
